Test results from patent US20090264384A1, “INDOLE, BENZIMIDAZOLE, AND BENZOLACTAM BORONIC ACID COMPOUNDS, ANALOGS THEREOF AND METHODS OF USE THEREOF” (Nuada, Inc., priority 2004, published 2009).
Blank lines part the entries; values can stand above or below the molecule they belong to.

How the values were obtained:
Phosphodiesterase 1 = Phosphodiesterase 1 enzyme assay; format: biochemical, bovine; details: reference compound, Phosphodiesterase 1
Phosphodiesterase 5(h) = target: T1, Phosphodiesterase 5(h) (Homo sapiens, UniProt O76074); experiment: Phosphodiesterase 5(h) enzyme assay; format: biochemical; details: Hill coefficient, Phosphodiesterase 5(h)
T1 construct: human platelets; from tissue; host or cells: human platelets

Phosphodiesterase 3(h) = Phosphodiesterase 3(h) (Homo sapiens, UniProt Q14432); experiment: Phosphodiesterase 3(h) enzyme assay; format: biochemical; details: Hill coefficient, Phosphodiesterase 3(h)
Phosphodiesterase 3(h), sequence (Q14432 674-1093 limits assumed): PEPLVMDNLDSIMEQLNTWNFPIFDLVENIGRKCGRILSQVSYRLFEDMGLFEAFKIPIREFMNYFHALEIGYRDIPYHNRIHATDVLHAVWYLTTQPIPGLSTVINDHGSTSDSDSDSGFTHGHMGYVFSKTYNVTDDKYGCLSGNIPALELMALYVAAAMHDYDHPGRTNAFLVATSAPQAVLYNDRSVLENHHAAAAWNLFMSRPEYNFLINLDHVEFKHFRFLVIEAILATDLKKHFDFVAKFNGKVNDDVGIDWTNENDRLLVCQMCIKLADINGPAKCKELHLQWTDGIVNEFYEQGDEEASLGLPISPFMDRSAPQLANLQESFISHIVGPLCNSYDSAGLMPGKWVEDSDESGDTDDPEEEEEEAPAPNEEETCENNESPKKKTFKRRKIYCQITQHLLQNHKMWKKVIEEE

Acetylcholinesterase(h) = target: T2, Acetylcholinesterase(h) (Homo sapiens, UniProt P22303); experiment: Acetylcholinesterase(h) enzyme assay; format: biochemical; details: Hill coefficient, Acetylcholinesterase(h)
T2 construct: host or cells: HEK-293 cells
T2 sequence (P22303 32-614): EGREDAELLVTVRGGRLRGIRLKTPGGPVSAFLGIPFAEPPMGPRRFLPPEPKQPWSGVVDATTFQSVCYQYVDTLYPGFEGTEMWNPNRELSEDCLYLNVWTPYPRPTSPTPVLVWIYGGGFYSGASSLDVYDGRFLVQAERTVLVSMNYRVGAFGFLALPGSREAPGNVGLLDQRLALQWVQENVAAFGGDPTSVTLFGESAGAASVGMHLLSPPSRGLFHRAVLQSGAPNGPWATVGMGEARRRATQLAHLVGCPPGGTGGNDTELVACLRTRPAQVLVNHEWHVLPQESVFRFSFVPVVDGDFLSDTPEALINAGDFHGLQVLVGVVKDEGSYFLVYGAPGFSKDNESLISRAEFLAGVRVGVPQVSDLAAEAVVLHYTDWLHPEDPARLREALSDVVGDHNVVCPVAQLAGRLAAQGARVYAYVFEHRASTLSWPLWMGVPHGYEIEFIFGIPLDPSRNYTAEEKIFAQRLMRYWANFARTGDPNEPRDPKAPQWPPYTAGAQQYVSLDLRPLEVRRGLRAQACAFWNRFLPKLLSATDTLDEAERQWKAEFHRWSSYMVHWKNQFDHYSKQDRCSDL

α1 (non-selective) = α1 (non-selective) binding assay; design: species or system rat
[1] = target: Catechol-O-methyl transferase; experiment: Catechol-O-methyl transferase enzyme assay; format: biochemical, porcine; details: reference compound, Catechol-O-methyl transferase
Catechol-O-methyl transferase, sequence (Q99028 whole entry): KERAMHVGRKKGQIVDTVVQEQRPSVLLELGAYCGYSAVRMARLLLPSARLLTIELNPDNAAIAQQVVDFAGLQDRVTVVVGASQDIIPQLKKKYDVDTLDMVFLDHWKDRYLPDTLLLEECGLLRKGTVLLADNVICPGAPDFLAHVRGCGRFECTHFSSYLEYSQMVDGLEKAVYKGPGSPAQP

Molecule: COc1nc2c([nH]1)c(=O)n(C)c(=O)n2CC(C)C [Example 8-methoxy-IBMX]
IC50 (Phosphodiesterase 1): 2400 nM

nH (Phosphodiesterase 5(h)): 1.5
Molecule: OCCN(CCO)c1nc(N2CCCCC2)c2nc(N(CCO)CCO)nc(N3CCCCC3)c2n1 [dipyridamole]

nH (Phosphodiesterase 3(h)): 0.8
Molecule: Cc1[nH]c(=O)c(C#N)cc1-c1ccncc1 [milrinone]

Molecule: CN(C)C(=O)Oc1cccc([N+](C)(C)C)c1 [neostigmine]
nH (Acetylcholinesterase(h)): 1.5

nH (α1 (non-selective)): 1.6
Molecule: COc1cc2nc(N3CCN(C(=O)c4ccco4)CC3)nc(N)c2cc1OC [prazosin, reference compound]

Molecule: Ro 41-0960
IC50 [1]: 51 nM
